Source: US8338616B2, “Thiazoliums and their use for treating protein aging associated diseases” (Beijing Molecule Science And Technology Co., Ltd., priority 2008, dated 2012)
Several values for one entry are separate records, joined by “and”; a condition that tells them apart may be missing. Equal values may be shown once. Read-outs that look alike come from different tables or passages of the source.

What was measured:
[1] = system: IgG cross-linked on red blood cell surface; settings: RBC of diabetic rats
Procedure: In vitro administration: 0.1 mol/L isoosmia PBS (pH7.4) was used as negative control, and it was used as solvent to form drug solutions of the compounds to be tested with different concentrations. Per 900 μl drug solution or solvent control was added with 100 μl RBC, slightly shaken at 37° C. for 16-18 h; centrifuged at 1000 g and 4° C. for 3 min, supernatant was discarded, 0.1 mol/L is PBS (pH7.4) was used to wash plate for 4 times to remove residual compound;
centrifuged at 1000 g and 4° C. for 3 min, a lower layer of RBC was obtained, diluted by 1:100 and used for ELISA assay.
Immunoadsorption assay protocol for IgG content cross-linked on RBC surface: Multiscreen-HA 0.45 μm 96 well microtiter plate (Millipore) was blocked with Superblock (300 μl/well) at 37° C. for 1 h; then dried at a reduced pressure of 5 mmHg, the plate was washed with PBST for 3 time, with 0.1 MPBS (pH7.4) for 3 times, and the plate was shaken for 1 min per time; the RBC to be tested was added (50 μl/well), and PBS background control wells were set (OD0); dried by suction at a reduced pressure; washed with 0.1mol/L PBS (pH7.4) 150 μl for 4 time, the plate was shaken for 1 min per time. After dried by suction at a reduced pressure, 1:500 diluted goat anti-mouse IgG-HRP (50 μl/well) was added, stood at room temperature for 2 h, dried by suction; washed with 0.1 mol/L PBS (pH7.4) 150μl/well for 3 times, the plate was shaken for 1 min per time; dried by suction; o-phenylene diamine (OPD) substrate coloration solution (100 μl/well) was added, stood at room temperature for 30 min under protection from light, the reaction was terminated with 2 mol/L H2SO4 (100 μl/well); the reaction liquid was quickly drawn off (150 μl/well) and transferred to a normal 96 well enzyme labeled plate, and OD values were measured at 490 nm.
Corrected OD=average OD of RBC sample to be tested−average OD of PBS background wells without RBC, the breaking rate of the compounds is expressed as the percentages of OD490 nm decrease: (OD490 nm of PBS wells−OD490 nm of the compound to be tested)/OD490 nm of PBS wells×100%.

[2] = system: diabetic rats; settings: for HR / LVEDP / LVSP / Neg dp/dt / Pos dp/dt: 4 weeks
Procedure: Rats were anesthetized with pentobarbital sodium injection (0.8%, 50 mg/kg), subjected to tracheal cannula, heparin anticoagulation, right common carotid artery cannula to left ventricle, communicated with Biopac physiological recorder via pressure transducers to record left ventricular pressure tracing, and the software of Biopac (Acknowledge, Version 3) was used for real-time reacording: heart rate, left ventricular systolic pressure peak (LVSP), maximum rate of change of left intraventricular pressure (±dp/dtmax), left ventricular end diastolic pressure (LVEDP). After 10 min of postoperative stabilization, the above parameters were recorded continuously, and mean values for 30 s were used as the measured values of these parameters.

[3] = system: left ventricular cardiac muscle collagen of diabetic rats; settings: printed for the group of A 18 mg/kg (three values), diabetic model 42.8±4.3, sodium
Procedure: After the end of vascular compliance experiment, the heart of each of rats was taken, trimmed to remove heart auricle and right ventricle and remain only left ventricle, the trimmed tissue block was planced in a mortar, added with a small amount of liquid nitrogen and ground rapidly, added with a small amount of liquid nitrogen again when the tissue became soft and ground continuously to form a fine powder, and stored at −70° C. for standby use. About 100 mg of cardiac muscle was weighed, added with 1 ml 200 μg/ml pepsin (solvent: 0.5 mol/L acetic acid), shaken at 37 ° C. for 2 h and 24 h, respectively, centrifuged at 40000 g for 60 min, the supernatants of pepsin digestion solutions for 2 h and 24 h were separately taken, hydrolyzed and measured to determine hydroxyproline contents (the methods for hydrolysis and measurement are the same as aforementioned). The dissolubility of cardiac muscle collagen is calculated by the following formula: […]

[4] = system: diabetic-hypertension rats
Procedure: The experiment about influence of AGEs breaker on hypotensive effect of nifedipine was performed on a diabetic-hypertension rat model. […] During the experiment, the animals took food freely, and were not interfered with any hypoglycemic drugs or hypotensive drugs.
The compound A was dissolved in distilled water, ready for use. Rats were randomly grouped as diabetic-hypertension control (DM-HTN) group and A (18 mg/kg) group. The drug was introgastrically administered once per day, and an equal amount of distilled water was administered in the diabetic-hypertension control group, for consecutive 4 weeks. After the end of experiment, blood samples were taken, thoracic aorta, liver, kidney were stored at −70° C. for standby use, and used for assays for tissue biochemical indicators and gene expression. Another part of kidney was fixed with 4% paraformaldehyde and used for pathological staining.
Nifedipine powder was formulated with DMSO to form a 5 mg/ml solution, then diluted with 15% ethanol-10% DMSO-25% PEG400 to form a 500 μg/ml solution, and diluted again to form 125 μg/ml, 62.5 μg/ml, 31.25 μg/ml, 15.62 μg/ml, 7.8 μg/ml solutions.
Rats were anesthetized with urethane-chloralose mixture by i.p., subjected to heparin anticoagulation, right common carotid artery cannula, communicated with
Biopac physiological recorder via pressure transducers. Through a right femoral vein remaining needle, nifedipine solutions were injected slowly by 5 batches in an order of concentrations from low to high, and arterial systolic pressure, diastolic pressure, pulse pressure and heart rate change were recorded continuously.

[5] = system: AGE-BSA-collagen cross-links; settings: n = 5
Procedure: AGE cross-link structures were prepared in vitro by cross-linking AGE-BSA to rat tail collagen coated on a 96 well ELISA plate. A ELISA method was used to evaluate the breaking effect of the compounds on AGE cross-links.
Normal Wister rats (body weight of 200±20 g) were sacrificed acutely, the tails were excised, and tail collagen was prepared at a temperature of 4° C. as follows. Tail tendon collagen fibrils were taken out, washed with physiological saline, peeled off non-collagen fibril tissues, rinsed with double-distilled water 3 times, cut into pieces, and immersed in 0.1% glacial acetic acid at 4° C. for one week during which it was shaken frequently. […] After dilution, the protein content was measured. […]
A solution containing 50 mg/ml of bovine serum albumin BSA (V) (Roch) and 0.5M of glucose in 0.2M PBS (pH 7.4) was incubated in dark at 37° C. under sterile condition for 3-4 months, to thereby form glycosylated BSA, i.e. BSA-AGE. […] Fluorescence scanning (Exi/Em (395/460 nm)) and SDS-PAGE were used to check the formation of BSA-AGE, and protein concentration was determined by the Lowery method.
The tail collagen coated 96 well ELISA plates were full-well treated with PBS (pH 7.4) for 1 hour to neutralize the acidic collagen. […] Within 10 minutes after the reaction, optical density (OD) was read at 450 nm on the BOBRAD Model 550 plate reader with the blank wells of the plates was set to 0. […]

[6] = system: tail collagen of diabetic rats; settings: diabetic model 19.7±7.2
Procedure: Tail tendon collagen fibrils were taken out under ice-bath, washed with physiological saline, peeled off non-collagen tissues, lyophilized and stored at −70° C. for standby use.
The lyophilized tail collagen was cut into pieces, 2 mg of tail collagen was precisely weighed, added with 10 μg/ml pepsin (solvent: 0.5 mol/L acetic acid) to reach a final concentration of 5 μg pepsin/mg tail collagen, shanken at 4° C. for 2 h, centrifuged at 40000 g for 60 min, after the volume of supernatant was precisely measured, 500 μl of supernatant and total deposition were separately transferred into 5 ml ampules, added with 6 mol/L HCl, sealed, placed in calorstat oven, and hydrolyzed at 110° C. for 24 h.
Measurement of hydroxyproline concentration in the hydrolysis solution: (1) 100 μl of hydrolysis solution was taken from each of ampules, added with about 50 μl 10 mol/L NaOH to pH 6.0, and citric acid buffer solution (50 g citric acid.H2O, 72.36 g anhydrous sodium acetate, 34 g NaOH, 11.52 ml glacial acetic acid were mixed and added with water to 1200 ml, and added with 300 ml n-propanol) 850 μl. […] (4) 10% P-DMAB (1 g p-dimethylaminobenzaldehyde, added with 3.15 mol/L perchloric acid 2.6 ml to dissolve, then diluted with n-propanol to 10 ml, ready to use) 500 μl was added, mixed quickly at 75° C. water-bath for 10 min. […]

[7] = system: long-term diabetic rats
[8] = diabetic-hypertension rats, A 18 mg/kg intragastric once per day, 4 weeks

With `Cc1csc[n+]1CC(=O)O.[Na+]` [A, 3-carboxymethyl-4-methyl-thiazolium bromide sodium] the “Breaking rate (OD decrease, %)” value ([1]; 1 μM) was 25.6 ± 2.1%, the “Breaking rate (OD decrease, %)” value ([1]; 10 μM) was 26.9 ± 3.0% and the “Breaking rate (OD decrease, %)” value ([1]; 30 μM) was 21.6 ± 5.0%. The “Breaking rate (OD decrease, %)” value ([1]; 100 μM) was 26.0 ± 2.7%, the HR ([2]; 9 mg/kg i.g.) was 361.80 ± 39.74 beat/min and the LVEDP ([2]; 9 mg/kg i.g.) was 5.73 ± 1.44 mmHg. It also gave an LVSP ([2]; 9 mg/kg i.g.) of 161.54 ± 13.98 mmHg, a Neg dp/dt ([2]; 9 mg/kg i.g.) of 7762.8 ± 320.2 mmHg/s and a Pos dp/dt ([2]; 9 mg/kg i.g.) of 12201.2 ± 1872.2 mmHg/s. The HR ([2]; 18 mg/kg i.g.) was 377.35 ± 17.54 beat/min, the LVEDP ([2]; 18 mg/kg i.g.) was 6.87 ± 1.26 mmHg and the LVSP ([2]; 18 mg/kg i.g.) was 170.65 ± 8.94 mmHg. The Neg dp/dt ([2]; 18 mg/kg i.g.) was 7660.8 ± 1154.8 mmHg/s, the Pos dp/dt ([2]; 18 mg/kg i.g.) was 11712.8 ± 1370.9 mmHg/s and the HR ([2]; 36 mg/kg i.g.) was 368.99 ± 31.66 beat/min. For the same compound, the LVEDP ([2]; 36 mg/kg i.g.) was 6.79 ± 2.47 mmHg, the LVSP ([2]; 36 mg/kg i.g.) was 168.25 ± 15.48 mmHg and the Neg dp/dt ([2]; 36 mg/kg i.g.) was 7675.4 ± 2216.6 mmHg/s. The Pos dp/dt ([2]; 36 mg/kg i.g.) was 11425.3 ± 1660.0 mmHg/s, the “effect on left ventricular functions” value ([2]; 4 weeks of administration) was “significant effect in improving left ventricular functions” and the “cardiac muscle collagen dissolubility” value [3] was 54.7±11.0% and 53.7±11.9% and 57.7±7.3%. For the same compound, the DBP [4, 8] was 144.2 ± 11.1 mmHg, the HR [4, 8] was 408.7 ± 35.7 beat/min and the MBP [4, 8] was 153.5 ± 13.7 mmHg. The PP [4, 8] was 22.9 ± 3.8 mmHg, the SBP [4, 8] was 166.6 ± 12.4 mmHg and the “change in heart rate and blood pressure” value ([4]; diabetic-hypertension rats, compound A for 4 weeks) was “no significant change”. For the same compound, the “hypotensive extent of nifedipine” value ([4]; fourth dosage of nifedipine (62.5 μg/ml) i.v., after 4 weeks of A 18 mg/kg, model group 18.92±10.54) was 29.99±9.06 mmHg, the “hypotensive effect of nifedipine vs diabetic-hypertension model group” value ([4]; from second dosage of nifedipine (15.62 μg/ml), after 4 weeks of A 18 mg/kg) was “increased hypotensive effect” and the “hypotensive extent of nifedipine” value ([4]; third dosage of nifedipine (31.25 μg/ml) i.v., after 4 weeks of A 18 mg/kg, model group 9.35±6.46) was 19.49±13.29 mmHg. The “Breaking rate (decrease % in OD)” value ([5]; 0.01 umol/L) was 8.1 ± 4.76, n =5%, the “Breaking rate (decrease % in OD)” value ([5]; 0.1 umol/L) was 11.3 ± 7.70, n = 5% and the tail collagen dissolubility ([6]; A 18 mg/kg) was 33.7±17.8%. For the same compound, the tail collagen dissolubility ([6]; A 36 mg/kg) was 37.5±11.1% and the “AGEs fluorescence content in aorta, left ventricular cardiac muscle and kidney” value [7] was “significantly decreasing”.
